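How tested: cells in 96-well plates exposed to compound for 48 hours at five concentrations. GI50 is the concentration that inhibits growth by half.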 The source made the active and inactive calls. No stated cut-off is given here; in the data, active = GI50 up to about 1.1 µM and inactive = higher.
How the values were obtained:
Experiment in all cases: NCI tumour cell line growth inhibition, 48 h
A549 = system: A549
CCRF-CEM = system: CCRF-CEM
DU-145 = system: DU-145
HCT-116 = system: HCT-116
HCT-15 = system: HCT-15
HOP-62 = system: HOP-62
IGROV-1 = system: IGROV-1
M14 = system: M14
MDA-MB-231 = system: MDA-MB-231
MDA-MB-435 = system: MDA-MB-435
MDA-N = system: MDA-N
MOLT-4 = system: MOLT-4
OVCAR-3 = system: OVCAR-3
PC-3 = system: PC-3
SF-268 = system: SF-268
SF-295 = system: SF-295
SK-MEL-28 = system: SK-MEL-28
SW-620 = system: SW-620
UO-31 = system: UO-31
NCI-H23 = system: NCI-H23

Structure (SMILES) | GI50 (A549) | GI50 (CCRF-CEM) | GI50 (DU-145) | GI50 (HCT-116) | GI50 (HCT-15) [µM] | GI50 (HOP-62) | GI50 (IGROV-1) | GI50 (M14) | GI50 (MDA-MB-231) | GI50 (MDA-MB-435) | GI50 (MDA-N) | GI50 (MOLT-4) | GI50 (OVCAR-3) | GI50 (PC-3) | GI50 (SF-268) | GI50 (SF-295) | GI50 (SK-MEL-28) | GI50 (SW-620) | GI50 (UO-31) | GI50 (NCI-H23)
C/C1=C\[C@@H](C)C[C@@H](C)OC(=O)[C@@H](C)NC(=O)[C@H](Cc2ccc(O)c(Br)c2)N(C)C(=O)CNC(=O)[C@H](C)C1 | < 0.01 µM (active) | < 0.01 µM (active) | 0.363 µM (active) | < 0.01 µM (active) | < 0.01 | < 0.01 µM (active) | < 0.01 µM (active) | < 0.0202 µM (active) | < 0.01 µM (active) | < 0.01 µM (active) | < 0.0304 µM (active) | 0.143 µM (active) | < 0.01 µM (active) | < 0.01 µM (active) | < 0.0193 µM (active) | 0.0114 µM (active) | 0.0284 µM (active) | < 0.01 µM (active) | 0.026 µM (active) | –
O=S1(=O)C(c2ccccc2)C(N2CCCCC2)C1C1CC2c3ccccc3C1c1ccccc12 (stereo unspecified) | 8.17 µM (inactive) | 2.45 µM (inactive) | > 100 µM (inactive) | 5.69 µM (inactive) | > 48.5 | > 100 µM (inactive) | > 94 µM (inactive) | > 100 µM (inactive) | > 100 µM (inactive) | > 30.7 µM (inactive) | > 100 µM (inactive) | 5.47 µM (inactive) | 17.6 µM (inactive) | > 30 µM (inactive) | > 100 µM (inactive) | > 100 µM (inactive) | – | > 28.4 µM (inactive) | > 54.7 µM (inactive) | > 100 µM (inactive)
O=C1CSC2(CC(/C=C/c3cccc([N+](=O)[O-])c3)=NN2c2cccc(S(=O)(=O)O)c2)N1c1nc2ccccc2s1 (stereo unspecified) | 25.8 µM (inactive) | 20.7 µM (inactive) | 19.6 µM (inactive) | 32.6 µM (inactive) | 18.1 | – | 13.9 µM (inactive) | 30.7 µM (inactive) | 19.1 µM (inactive) | 18.5 µM (inactive) | 25.1 µM (inactive) | 22.4 µM (inactive) | – | 21.4 µM (inactive) | 26 µM (inactive) | – | 57 µM (inactive) | 26.8 µM (inactive) | 19.6 µM (inactive) | 16.7 µM (inactive)
COc1ccc(C(CC(=O)c2cccs2)C(=O)c2ccc3c(c2)OCO3)cc1 (stereo unspecified) | > 100 µM (inactive) | > 100 µM (inactive) | > 100 µM (inactive) | > 100 µM (inactive) | > 100 | > 100 µM (inactive) | > 100 µM (inactive) | > 100 µM (inactive) | > 100 µM (inactive) | > 100 µM (inactive) | > 100 µM (inactive) | > 100 µM (inactive) | – | > 100 µM (inactive) | > 100 µM (inactive) | – | > 100 µM (inactive) | > 100 µM (inactive) | – | > 100 µM (inactive)
O=c1[nH]c2ccccc2n1CCCN1CCC(n2c(=O)[nH]c3cc(Cl)ccc32)CC1 [DOMPERIDONE] | 21.8 µM (inactive) | 27.8 µM (inactive) | 19 µM (inactive) | 16.8 µM (inactive) | 18.7 | 18.3 µM (inactive) | 19.2 µM (inactive) | 16 µM (inactive) | 17.6 µM (inactive) | 16.2 µM (inactive) | 15.8 µM (inactive) | 13.9 µM (inactive) | 17.9 µM (inactive) | 19.4 µM (inactive) | – | – | 17 µM (inactive) | 17.3 µM (inactive) | 4.7 µM (inactive) | 17.3 µM (inactive)
Oc1c(Cl)c(Cl)c(O)c(CCNc2nccs2)c1Cl | 21.6 µM (inactive) | 3.74 µM (inactive) | 3.67 µM (inactive) | 7.66 µM (inactive) | 13.7 | 19.1 µM (inactive) | 3.27 µM (inactive) | 15.7 µM (inactive) | 0.119 µM (active) | 16.1 µM (inactive) | – | 48.8 µM (inactive) | 9.35 µM (inactive) | 17.2 µM (inactive) | 9.06 µM (inactive) | 19.1 µM (inactive) | 20.5 µM (inactive) | 3.3 µM (inactive) | 16.4 µM (inactive) | 18.4 µM (inactive)
CCOP(=O)(OCC)C(Cc1ccc(OC)c(OC)c1)N=C(c1ccccc1)c1ccccc1 (stereo unspecified) | 26.5 µM (inactive) | 24 µM (inactive) | 37.2 µM (inactive) | 27.1 µM (inactive) | 32.5 | – | 45.2 µM (inactive) | 51.8 µM (inactive) | 42.3 µM (inactive) | 71 µM (inactive) | 59.8 µM (inactive) | – | 34.4 µM (inactive) | 32.4 µM (inactive) | > 100 µM (inactive) | 26.2 µM (inactive) | 45.3 µM (inactive) | 47.6 µM (inactive) | 40.4 µM (inactive) | 41.6 µM (inactive)
O=C1c2ccccc2C(=O)c2c(OCCOCCO)cccc21 | > 100 µM (inactive) | – | > 100 µM (inactive) | 45.6 µM (inactive) | 63.7 | > 100 µM (inactive) | 45.5 µM (inactive) | > 100 µM (inactive) | 0.935 µM (active) | > 100 µM (inactive) | – | 58.3 µM (inactive) | 28.4 µM (inactive) | 38.1 µM (inactive) | 44.9 µM (inactive) | 96.6 µM (inactive) | > 100 µM (inactive) | 57.5 µM (inactive) | 38.9 µM (inactive) | > 100 µM (inactive)
Nc1nc(Cl)cc(NCC2(CO)CC(CCc3ccccc3)C2)n1 (stereo unspecified) | 9.16 µM (inactive) | > 58.9 µM (inactive) | > 100 µM (inactive) | – | > 59.2 | > 37.6 µM (inactive) | > 100 µM (inactive) | > 100 µM (inactive) | > 81.1 µM (inactive) | > 100 µM (inactive) | > 100 µM (inactive) | 8.38 µM (inactive) | 5.07 µM (inactive) | 73.8 µM (inactive) | > 55.8 µM (inactive) | 5.9 µM (inactive) | > 100 µM (inactive) | > 100 µM (inactive) | > 75.2 µM (inactive) | 10.5 µM (inactive)
Cc1ccc(C2SC(=N)Nc3c2c(C)nn3C(=O)c2ccncc2)cc1 (stereo unspecified) | > 10 µM (inactive) | > 10 µM (inactive) | > 10 µM (inactive) | > 10 µM (inactive) | > 10 | > 10 µM (inactive) | > 10 µM (inactive) | > 10 µM (inactive) | > 10 µM (inactive) | > 10 µM (inactive) | > 10 µM (inactive) | > 10 µM (inactive) | > 10 µM (inactive) | > 10 µM (inactive) | > 10 µM (inactive) | > 10 µM (inactive) | > 10 µM (inactive) | > 10 µM (inactive) | – | > 10 µM (inactive)
COC(=O)C1C(C(=O)OC)C1(Br)CBr (stereo unspecified) | > 100 µM (inactive) | – | > 100 µM (inactive) | 39.3 µM (inactive) | 17.9 | > 100 µM (inactive) | 30.5 µM (inactive) | 31.5 µM (inactive) | 87.5 µM (inactive) | 60.5 µM (inactive) | 63.7 µM (inactive) | 6.15 µM (inactive) | 89.3 µM (inactive) | > 100 µM (inactive) | 28.9 µM (inactive) | > 100 µM (inactive) | 35.4 µM (inactive) | 31.7 µM (inactive) | 18.4 µM (inactive) | 70.1 µM (inactive)
COc1ccc(-c2cc(O)c3c(C)cc(C)nc3n2)cc1 | 55.3 µM (inactive) | 16.9 µM (inactive) | 48.4 µM (inactive) | – | 24.4 | 26.8 µM (inactive) | 23.3 µM (inactive) | 35.3 µM (inactive) | 17.7 µM (inactive) | – | – | 16 µM (inactive) | – | – | 53 µM (inactive) | – | 47.9 µM (inactive) | 38.9 µM (inactive) | 38 µM (inactive) | 28.6 µM (inactive)
CS(=O)(=O)OCCn1c(=O)n(CCOS(C)(=O)=O)c(=O)n(CCOS(C)(=O)=O)c1=O | > 100 µM (inactive) | > 100 µM (inactive) | > 100 µM (inactive) | > 100 µM (inactive) | > 100 | > 100 µM (inactive) | > 100 µM (inactive) | – | > 100 µM (inactive) | > 100 µM (inactive) | > 100 µM (inactive) | > 100 µM (inactive) | > 100 µM (inactive) | – | > 100 µM (inactive) | > 100 µM (inactive) | > 100 µM (inactive) | > 100 µM (inactive) | > 100 µM (inactive) | > 100 µM (inactive)
Nc1nccc2c1ncn2[C@H]1C[C@H](O)[C@@H](CO)O1 | – | > 100 µM (inactive) | > 100 µM (inactive) | > 100 µM (inactive) | > 100 | > 100 µM (inactive) | > 100 µM (inactive) | > 100 µM (inactive) | > 100 µM (inactive) | > 100 µM (inactive) | > 100 µM (inactive) | > 100 µM (inactive) | > 100 µM (inactive) | > 100 µM (inactive) | – | > 100 µM (inactive) | > 100 µM (inactive) | > 100 µM (inactive) | > 100 µM (inactive) | > 100 µM (inactive)
COCO[C@@H]1C[C@H]2C(O)Nc3ccccc3C(=O)N2C1 (stereo partly specified) | > 100 µM (inactive) | > 100 µM (inactive) | > 100 µM (inactive) | – | > 100 | > 100 µM (inactive) | > 100 µM (inactive) | > 100 µM (inactive) | > 100 µM (inactive) | > 100 µM (inactive) | > 100 µM (inactive) | > 100 µM (inactive) | > 100 µM (inactive) | > 100 µM (inactive) | > 100 µM (inactive) | > 100 µM (inactive) | > 100 µM (inactive) | > 100 µM (inactive) | > 100 µM (inactive) | > 100 µM (inactive)

— ChEMBL document CHEMBL1201862, “PubChem BioAssay data set” (2004)
